≈ marks a conversion by molar mass, not a printed value. Where “and” joins values, the source holds several entries; their conditions need not be identical. Identical values can stand only once.
What was measured:
Experiment in all cases: ≥ marks a high value that may be exact or a test limit, other limits are often not marked, values filed in µg/mL are converted to µM
[1] = test system: Staphylococcus aureus E4049
[2] = test system: Staphylococcus aureus ATCC 9144
[3] = test system: Staphylococcus aureus 3968
[4] = test system: Staphylococcus aureus 5118
[5] = test system: Escherichia coli KCTC 1682
[6] = test system: Pseudomonas aeruginosa CCARM 2109
[7] = test system: Bacillus subtilis KCTC 3068
[8] = test system: Enterococcus faecium ATCC 51559
[9] = test system: Staphylococcus aureus CCARM 3090
[10] = test system: Staphylococcus epidermidis KCTC 1917
[11] = test system: Salmonella typhimurium KCTC 1926
[12] = test system: Pseudomonas aeruginosa CCARM 2095
[13] = test system: Staphylococcus aureus CCARM 3095
[14] = test system: Pseudomonas aeruginosa KCTC 1637
[15] = test system: Staphylococcus aureus CCARM 3089
[16] = test system: Pseudomonas aeruginosa 4007
[17] = test system: Escherichia coli ATCC 25922
[18] = test system: Staphylococcus aureus CCARM 3518
[19] = test system: Bacillus subtilis KCTC 1998
[20] = test system: Pseudomonas aeruginosa 4891
[21] = test system: Trichosporon beigelii KCTC 7707
[22] = test system: Escherichia coli CCARM 1238
[23] = test system: Pseudomonas aeruginosa ATCC 27853
[24] = test system: Staphylococcus aureus ATCC 25923
[25] = test system: Escherichia coli CCARM 1229
[26] = test system: Listeria monocytogenes KCTC 3710
[27] = test system: Candida albicans KCTC 7270
[28] = test system: Staphylococcus aureus LAC

SMILES: CSCC[C@H](NC(=O)[C@H](C)NC(=O)[C@H](CC(C)C)NC(=O)[C@@H](N)CCCCN)C(=O)N[C@@H](CO)C(=O)N[C@@H](CCSC)C(=O)N[C@@H](CO)C(=O)N[C@@H](Cc1ccccc1)C(=O)N[C@@H](CC(N)=O)C(=O)N[C@@H](Cc1ccccc1)C(=O)N[C@H](C(=O)N[C@@H](Cc1ccccc1)C(=O)N[C@@H](Cc1ccc(O)cc1)C(=O)N[C@@H](Cc1ccccc1)C(=O)N[C@@H](CCSC)C(=O)N[C@H](C(=O)N[C@@H](CC(N)=O)C(=O)N[C@@H](Cc1ccccc1)C(=O)N[C@@H](CC(=O)O)C(=O)N[C@@H](CC(=O)O)C(=O)O)C(C)C)C(C)C [KLAMSMSFNFVFYFMVNFDD]
- MIC [1]: 15.5 µM (≈ 38 µg/mL)
- MIC [2]: ≥ 125 µM
- MIC [3]: ≥ 250 µM
- MIC [4]: ≥ 125 µM

SMILES: CC[C@H](C)[C@H](NC(=O)[C@H](Cc1ccccc1)NC(=O)[C@H](CCCN=C(N)N)NC(=O)[C@@H](N)CCCCN)C(=O)N[C@@H](CCCCN)C(=O)N[C@@H](Cc1c[nH]c2ccccc12)C(=O)N[C@@H](Cc1ccc(O)cc1)C(=O)N[C@@H](CCCCN)C(=O)N[C@@H](C)C(=O)N[C@@H](Cc1c[nH]c2ccccc12)C(=O)N[C@@H](CC(N)=O)C(=O)N[C@@H](CCCCN)C(=O)N[C@@H](CCCCN)C(=O)N[C@@H](Cc1c[nH]c2ccccc12)C(=O)N[C@@H](CCCN=C(N)N)C(=O)N[C@@H](CCCCN)C(=O)N[C@@H](Cc1ccc(O)cc1)C(N)=O [KRFIKWYKAWNKKWRKY]
- MIC [5]: 4 µM and 8 µM
- MIC [6]: 8 µM (≈ 19.4 µg/mL)
- MIC [7]: 8 µM (≈ 19.4 µg/mL)
- MIC [8]: 4 µM (≈ 9.72 µg/mL)
- MIC [9]: 2 µM (≈ 4.86 µg/mL)
- MIC [10]: 4 µM (≈ 9.72 µg/mL)
- MIC [11]: 2 µM (≈ 4.86 µg/mL)
- MIC [12]: 4 µM (≈ 9.72 µg/mL)
- MIC [13]: 2 µM (≈ 4.86 µg/mL)
- MIC [14]: 2 µM (≈ 4.86 µg/mL)
- MIC [15]: 2 µM (≈ 4.86 µg/mL)

SMILES: CC[C@H](C)[C@H](NC(=O)[C@H](CCCCN)NC(=O)[C@H](CCCCN)NC(=O)[C@@H](NC(=O)[C@H](C)NC(=O)[C@H](CCC(=O)O)NC(=O)[C@H](Cc1cnc[nH]1)NC(=O)[C@@H](NC(=O)CNC(=O)[C@H](CCC(N)=O)NC(=O)[C@H](Cc1ccccc1)NC(=O)[C@@H](NC(=O)[C@H](CCCCN)NC(=O)[C@H](CCCCN)NC(=O)[C@H](CC(C)C)NC(=O)[C@H](C)NC(=O)[C@H](CC(N)=O)NC(=O)[C@@H](N)CC(C)C)C(C)C)[C@@H](C)CC)[C@@H](C)CC)C(N)=O [LNALKKVFQGIHEAIKKI]
- MIC [16]: 4 µM (≈ 8.2 µg/mL)
- MIC [17]: 2 µM (≈ 4.1 µg/mL)
- MIC [9]: 4 µM (≈ 8.2 µg/mL)
- MIC [18]: 4 µM (≈ 8.2 µg/mL)
- MIC [19]: 4 µM (≈ 8.2 µg/mL)
- MIC [20]: 8 µM (≈ 16.4 µg/mL)
- MIC [11]: 4 µM (≈ 8.2 µg/mL)
- MIC [21]: 16 µM (≈ 32.8 µg/mL)
- MIC [22]: 2 µM (≈ 4.1 µg/mL)
- MIC [23]: 4 µM (≈ 8.2 µg/mL)
- MIC [24]: 4 µM (≈ 8.2 µg/mL)
- MIC [25]: 2 µM (≈ 4.1 µg/mL)
- MIC [26]: 8 µM (≈ 16.4 µg/mL)
- MIC [27]: 16 µM (≈ 32.8 µg/mL)

SMILES: NC(N)=NCCC[C@H](NC(=O)[C@H](CCCN=C(N)N)NC(=O)[C@H](CCCN=C(N)N)NC(=O)[C@@H](N)CCCN=C(N)N)C(=O)N[C@@H](Cc1c[nH]c2ccccc12)C(=O)N[C@@H](Cc1c[nH]c2ccccc12)C(=O)N[C@@H](Cc1c[nH]c2ccccc12)C(=O)N[C@@H](Cc1c[nH]c2ccccc12)C(=O)N[C@@H](Cc1c[nH]c2ccccc12)C(=O)O [RRRRWWWWW]
- MIC [17]: 20.3 µM (≈ 32 µg/mL)
- MIC [28]: 10.2 µM (≈ 16 µg/mL)

Reference: DBAASP
